Tests used:
[1] = Pharmacokinetics study in rats; type: in vivo
Procedure: The pharmacokinetics study was created as described. […] Approximately 200 μL of whole blood was collected into heparin-coated tubes at 0.083, 0.25, 0.5, 1, 2, 3, 4, 6, 8, 12, and 24 h after dosing. Plasma was collected immediately by centrifugation (8000× g, 5 min, room temperature). Blood was placed in a heparinized Eppendorf™ tube. Plasma was centrifuged, and the concentration of compounds in the sample was determined by LCMS/MS after pre-treatment. Drug-concentration data were processed in a […] using WinNonlin™ 6.3 (Pharsight, Mountain View, CA, USA).

OVCAR3 cells = experiment: Cell scratch test (migration), OVCAR3; type: cell-based; details: 24 h
Procedure: Cells were inoculated into six-well plates as long as they spread to the bottom of the wells after wall attachment. After 24 h of wall attachment, cells were scratched with a 200 μL pipette tip and then replaced with low serum medium (1% FBS) containing different concentrations of compounds. Spot photographs were taken at 0 h and 24 h after the scratch was made. Data analysis was performed using Adobe Photoshop 2021 (Adobe Systems Software Ireland Ltd., San Jose, CA, USA) and Image J2 (National Institutes of Health, Bethesda, MD, USA).

[2] = Caco-2 permeability and transporter substrate evaluation; type: in vitro ADME; details: human, Caco-2, 2 μM
Procedure: Caco-2 cells were cultured in MEM with 20% FBS, penicillin (100 U/mL), and streptomycin (100 μg/mL) at 37 °C in 95% air and 5% CO2. Cells were seeded into 96-well cell plates and cultured continuously for 24 days for subsequent experiments. […] After 120 min of incubation, samples were collected from the apical and basal ends. The […] content of each sample was determined by liquid chromatography–tandem mass spectrometry (LC-MS/MS). The apparent […] coefficient and efflux ratio were calculated.

HCT116 cells = experiment: Cell proliferation assay (Celltiter-Glo), HCT116; type: cell-based; details: Homo sapiens, HCT-116, 72 h; HCT116 (overexpression of CCNE1), three days
Procedure: Celltiter-Glo Luminescent Cell Viability Assay (Promega, Madison, WI, USA) was used to detect cell viability according to the manufacturer’s instructions. This assay is a homogeneous method of determining the number of viable cells in a culture based on quantitation of the ATP present, an indicator of metabolically active cells. Cells were digested and paved in white-bottomed 96-well plates with 1000 cells/100 μL cell suspension solution; then, different concentrations of compounds were added the next day. TOV-21G and HCT116 were placed in the incubator for three days and OVCAR3 for five days. Then, 100 μL Celltiter-Glo solution was added and mixed for 5 min; the luminous intensity of each well was detected with a spectrophotometer (BioTek, Winooski, VT, USA). The experiment was repeated three times to calculate the cell survival rate.

[3] = both sexes, rat, plasma, iv, 2 mg/kg i.v.
[4] = both sexes, rat, plasma, iv, 2 mg/kg, 2 mg/kg i.v.
[5] = both sexes, rat, plasma, po, 5 mg/kg i.g.
[6] = both sexes, rat, plasma, po, 5 mg/kg, 5 mg/kg i.g.

CL/F ([1]; 2 mg/kg i.v.): 41.2 mL/min/kg
Vz/F ([1]; 2 mg/kg i.v.): 1.3 ± 0.374 L/kg
AUClast ([1]; 2 mg/kg i.v., 2 mg/kg): 2.052 ± 0.337 µM·h
T1/2 ([1]; 2 mg/kg i.v., 2 mg/kg): 22.2 ± 7.8 min
AUClast ([1]; 5 mg/kg i.g., 5 mg/kg): 0.293 ± 0.0646 µM·h
T1/2 ([1]; 5 mg/kg i.g., 5 mg/kg): 50.4 ± 7.2 min
Cmax [1, 3]: 5500 ± 2310 nM
MRT last [1, 3]: 27 ± 15 min
AUC(0-t) [1, 4]: ~2.05 µM·h
half-life [1, 4]: ~22.2 min
bioavailability ([1]; both sexes, rat, plasma, oral, 5 mg/kg, 5 mg/kg i.g. vs 2 mg/kg i.v., read-out: F (oral bioavailability)): ~3.57%
Cmax [1, 5]: 389 ± 87.9 nM
MRT last [1, 5]: 51 ± 6 min
AUC(0-t) [1, 6]: ~0.293 µM·h
Tmax [1, 6]: ~15 min
half-life [1, 6]: ~50.4 min
Papp A→B at 120 min, 2 µM [2]: 1.6 ×10⁻⁶ cm/s
Papp B→A at 120 min, 2 µM [2]: 8.56 ×10⁻⁶ cm/s
efflux ratio at 120 min, 2 µM [2]: 5.34
IC50 (HCT116 cells): 60.9 nM
IC90 (HCT116 cells): 235 nM
Structure (SMILES): CC1(C)CCN1C(=O)O[C@@H]1CC[C@H](c2cc(NC(=O)Cc3ccc(N4CCCC4=O)cc3)n[nH]2)C1 [III-13]
migration rate (OVCAR3 cells): decreased significantly
